Assay results reported in patent publication US20230339891A1, “URACIL DERIVATIVES AS MER-AXL INHIBITORS” (BRISTOL-MYERS SQUIBB COMPANY, priority 2018, published 2023).

Legend:
HIS-AXL 473-End = HIS-AXL 473-End (Homo sapiens (Human), UniProt P30530); experiment: AXL kinase homogeneous time resolved fluorescence (HTRF) binding assay; conditions: 1 nM kinase, fluorescein-labeled kinase tracer at Kd, 60 minutes at room temperature
Procedure: (§1) MERTK, AXL, TYRO3 Kinase Homogeneous Time Resolved Fluorescence (HTRF) Assay
(§2) Assays were performed in black, flat-bottom, 1536-well plates. The reactions were incubated at room temperature for 60 minutes, following which the HTRF signals, ratio of fluorescence intensities at emission wavelengths for fluorescein acceptor (520 nm) and terbium donor (495 nm), the 520/495 ratio, were measured on the Envision Plate reader. Inhibition data were calculated from the 520/495 ratio generated by the no protein control reactions for 100% inhibition and vehicle-only reactions for 0% inhibition, and dose response curves generated to determine the concentration required for inhibiting 50% of the HTRF signal (IC50). Compounds were dissolved at 10 mM in dimethylsulfoxide (DMSO) and evaluated at eleven concentrations.

GST-MERTK 578-872 = GST-MERTK 578-872 (Homo sapiens (Human), UniProt Q12866); experiment: MERTK kinase homogeneous time resolved fluorescence (HTRF) binding assay; conditions: 1 nM kinase, fluorescein-labeled kinase tracer at Kd, 60 minutes at room temperature; read-out: Mer HTRF IC50
GST-MERTK 578-872, sequence (Q12866 578-872): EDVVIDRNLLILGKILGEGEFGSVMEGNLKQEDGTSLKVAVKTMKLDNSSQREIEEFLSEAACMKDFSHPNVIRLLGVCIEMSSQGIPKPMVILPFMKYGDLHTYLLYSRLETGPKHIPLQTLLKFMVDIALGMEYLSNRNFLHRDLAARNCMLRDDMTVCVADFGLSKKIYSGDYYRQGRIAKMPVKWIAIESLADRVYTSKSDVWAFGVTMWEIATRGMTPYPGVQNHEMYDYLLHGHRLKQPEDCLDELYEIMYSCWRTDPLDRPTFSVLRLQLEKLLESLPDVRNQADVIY
Procedure: as §1, §2

HIS-AXL 473-End, sequence (P30530 473-894): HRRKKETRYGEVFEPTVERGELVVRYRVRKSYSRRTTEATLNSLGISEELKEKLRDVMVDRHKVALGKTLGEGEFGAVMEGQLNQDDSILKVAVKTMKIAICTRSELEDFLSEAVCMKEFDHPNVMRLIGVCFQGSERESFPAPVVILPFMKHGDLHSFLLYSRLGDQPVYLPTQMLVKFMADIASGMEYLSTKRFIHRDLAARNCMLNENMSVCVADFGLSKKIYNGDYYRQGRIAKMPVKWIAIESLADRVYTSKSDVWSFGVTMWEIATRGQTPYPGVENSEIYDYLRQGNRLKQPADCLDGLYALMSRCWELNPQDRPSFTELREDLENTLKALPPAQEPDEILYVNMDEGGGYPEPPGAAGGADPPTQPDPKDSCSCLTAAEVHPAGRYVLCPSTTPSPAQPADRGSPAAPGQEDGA

Row | IC50 (HIS-AXL 473-End) | IC50 (GST-MERTK 578-872) | SMILES
1 | 2.9 nM | 14 nM | CC(C)n1cc(C(=O)Nc2ccc(Oc3ccnc(Nc4ccc(C#N)cn4)c3)c(F)c2)c(=O)n(-c2ccc(F)cc2)c1=O [Example 1, N-[4-({2-[(5-cyanopyridin-2-yl)amino]pyridin-4-yl}oxy)-3-fluorophenyl]-3-(4-fluorophenyl)-2,4-dioxo-1-(propan-2-yl)-1,2,3,4-tetrahydropyrimidine-5-carboxamide]
2 | 1730 nM | 59 nM | CC(C)n1cc(C(=O)Nc2ccc(Oc3ccnc(Nc4ncc(Cl)cc4F)c3)c(F)c2)c(=O)n(-c2ccc(F)cc2)c1=O [Example 3]
3 | 24 nM | 56 nM | CCc1ccc(Nc2cc(Oc3ccc(NC(=O)c4cn(C(C)C)c(=O)n(-c5ccc(F)cc5)c4=O)cc3F)ccn2)nc1 [Example 5]
4 | 55 nM | 228 nM | CC(C)n1cc(C(=O)Nc2ccc(Oc3ccnc(Nc4ncc(C(F)(F)F)cc4F)c3)c(F)c2)c(=O)n(-c2ccc(F)cc2)c1=O [Example 12]
5 | 1.7 nM | 8 nM | CC(C)n1cc(C(=O)Nc2ccc(Oc3ccnc(Nc4ccc(C(C)(C)O)cn4)c3)c(F)c2)c(=O)n(-c2ccc(F)cc2)c1=O [Example 15]
6 | 1.1 nM | 5.8 nM | CC(C)n1cc(C(=O)Nc2ccc(Oc3ccnc(Nc4ccc(C(N)=O)cn4)c3)c(F)c2)c(=O)n(-c2ccc(F)cc2)c1=O [Example 16]
7 | 2.7 nM | 1.9 nM | CC(C)n1cc(C(=O)Nc2ccc(Oc3ccnc(Nc4ccc(C(=O)N(C)C)cn4)c3)c(F)c2)c(=O)n(-c2ccc(F)cc2)c1=O [Example 17]
8 | 11 nM | 18 nM | CC(C)n1cc(C(=O)Nc2ccc(Oc3ccnc(Nc4ccc(S(C)(=O)=O)cn4)c3)c(F)c2)c(=O)n(-c2ccc(F)cc2)c1=O [Example 18]
9 | 1.6 nM | 4.4 nM | CC(C)n1cc(C(=O)Nc2ccc(Oc3ccnc(Nc4ccc(S(N)(=O)=O)cn4)c3)c(F)c2)c(=O)n(-c2ccc(F)cc2)c1=O [Example 19]
10 | 4.7 nM | 12 nM | CC(C)n1cc(C(=O)Nc2ccc(Oc3ccnc(Nc4ccc(S(=O)(=O)N(C)C)cn4)c3)c(F)c2)c(=O)n(-c2ccc(F)cc2)c1=O [Example 20]
11 | 39 nM | 164 nM | CC(C)n1cc(C(=O)Nc2ccc(Oc3ccnc(Nc4ccc(N5CCOCC5)cn4)c3)c(F)c2)c(=O)n(-c2ccc(F)cc2)c1=O [Example 21]
12 | 8.9 nM | 49 nM | CC(C)n1cc(C(=O)Nc2ccc(Oc3ccnc(Nc4cc(N5CCOCC5)ccn4)c3)c(F)c2)c(=O)n(-c2ccc(F)cc2)c1=O [Example 22]
13 | 5.6 nM | 12 nM | CC(C)n1cc(C(=O)Nc2ccc(Oc3ccnc(Nc4ccc(-n5ccnc5)cn4)c3)c(F)c2)c(=O)n(-c2ccc(F)cc2)c1=O [Example 24]
14 | 3.6 nM | 13 nM | CC(C)n1cc(C(=O)Nc2ccc(Oc3ccnc(Nc4ccc5cc[nH]c5n4)c3)c(F)c2)c(=O)n(-c2ccc(F)cc2)c1=O [Example 25]
15 | 6.8 nM | 19 nM | Cc1cnc(Nc2cc(Oc3ccc(NC(=O)c4cn(C(C)C)c(=O)n(-c5ccc(F)cc5)c4=O)cc3F)ccn2)cn1 [Example 27]
16 | 7.4 nM | 20 nM | CCc1cnc(Nc2cc(Oc3ccc(NC(=O)c4cn(C(C)C)c(=O)n(-c5ccc(F)cc5)c4=O)cc3F)ccn2)cn1 [Example 28]
17 | 7.2 nM | 182 nM | CCOc1cnc(Nc2cc(Oc3ccc(NC(=O)c4cn(C(C)C)c(=O)n(-c5ccc(F)cc5)c4=O)cc3F)ccn2)cn1 [Example 29]
18 | 48 nM | 165 nM | CC(C)n1cc(C(=O)Nc2ccc(Oc3ccnc(Nc4ncc(C(F)(F)F)cn4)c3)c(F)c2)c(=O)n(-c2ccc(F)cc2)c1=O [Example 30]
19 | 7.5 nM | 158 nM | Cc1cnc(Nc2cc(Oc3ccc(NC(=O)c4cn(C(C)C)c(=O)n(-c5ccc(F)cc5)c4=O)cc3F)ccn2)nc1 [Example 31]
20 | 0.9 nM | 342 nM | CCc1cnc(Nc2cc(Oc3ccc(NC(=O)c4cn(C(C)C)c(=O)n(-c5ccc(F)cc5)c4=O)cc3F)ccn2)nc1 [Example 32]
21 | 19 nM | 67 nM | COC(=O)Cc1csc(Nc2cc(Oc3ccc(NC(=O)c4cn(C(C)C)c(=O)n(-c5ccc(F)cc5)c4=O)cc3F)ccn2)n1 [Example 33]
22 | 0.8 nM | 4.3 nM | CC(C)n1cc(C(=O)Nc2ccc(Oc3ccnc(Nc4ccn(C(F)F)n4)c3)c(F)c2)c(=O)n(-c2ccc(F)cc2)c1=O [Example 35, N-{4-[(2-{[1-(Difluoromethyl)-1H-pyrazol-3-yl]amino}pyridin-4-yl)oxy]-3-fluorophenyl}-3-(4-fluorophenyl)-2,4-dioxo-1-(propan-2-yl)-1,2,3,4-tetrahydropyrimidine-5-carboxamide]
23 | 11 nM | 38 nM | O=C(Nc1ccc(Oc2ccnc(Nc3ccc(Cl)cn3)c2)c(F)c1)c1cn(C2CC2)c(=O)n(-c2ccc(F)cc2)c1=O [Example 36, N-[4-({2-[(5-chloropyridin-2-yl)amino]pyridin-4-yl}oxy)-3-fluorophenyl]-1-cyclopropyl-3-(4-fluorophenyl)-2,4-dioxo-1,2,3,4-tetrahydropyrimidine-5-carboxamide]
24 | 2.6 nM | 14 nM | CC(C)n1cc(C(=O)Nc2ccc(Oc3ccnc(Nc4ccc(S(C)(=O)=O)cn4)c3)c(F)c2)c(=O)n(-c2ccc(F)cn2)c1=O [Example 37, N-[3-Fluoro-4-({2-[(5-methanesulfonylpyridin-2-yl)amino]pyridin-4-yl}oxy)phenyl]-3-(5-fluoropyridin-2-yl)-2,4-dioxo-1-(propan-2-yl)-1,2,3,4-tetrahydropyrimidine-5-carboxamide]
25 | 3.5 nM | 16 nM | Cn1cc(C(=O)Nc2ccc(Oc3ccnc(Nc4ccc(S(C)(=O)=O)cn4)c3)c(F)c2)c(=O)n(-c2ccc(F)cc2)c1=O [Example 38]
26 | 3.8 nM | 11 nM | CN(C)S(=O)(=O)c1ccc(Nc2cc(Oc3ccc(NC(=O)c4cn(C5CC5)c(=O)n(-c5ccc(F)cc5)c4=O)cc3F)ccn2)nc1 [Example 40, 1-Cyclopropyl-N-{4-[(2-{[5-(dimethylsulfamoyl)pyridin-2-yl]amino}pyridin-4-yl)oxy]-3-fluorophenyl}-3-(4-fluorophenyl)-2,4-dioxo-1,2,3,4-tetrahydropyrimidine-5-carboxamide]
27 | – | 6.7 nM | C[C@H](CO)n1cc(C(=O)Nc2ccc(Oc3ccnc(Nc4ccc(S(=O)(=O)N(C)C)cn4)c3)c(F)c2)c(=O)n(-c2ccc(F)cc2)c1=O [Example 55]
28 | – | 17 nM | C[C@H](CO)n1cc(C(=O)Nc2ccc(Oc3ccnc(Nc4ccc(S(=O)(=O)N(C)C)cn4)c3)c(F)c2)c(=O)n(-c2ccc(F)cc2)c1=O [Example 56]

Row | SMILES | IC50 (HIS-AXL 473-End) | IC50 (GST-MERTK 578-872)
29 | Cc1ccc(Nc2cc(Oc3ccc(NC(=O)c4cn(C(C)C)c(=O)n(-c5ccc(F)cc5)c4=O)cc3F)ccn2)nc1 [Example 4] | 4.4 nM | 32 nM
30 | Cc1cnc(Nc2cc(Oc3ccc(NC(=O)c4cn(C(C)C)c(=O)n(-c5ccc(F)cc5)c4=O)cc3F)ccn2)cc1C [Example 6] | 7.9 nM | 37 nM
31 | Cc1ccc(Nc2cc(Oc3ccc(NC(=O)c4cn(C(C)C)c(=O)n(-c5ccc(F)cc5)c4=O)cc3F)ccn2)nc1Cl [Example 7] | 21 nM | 82 nM
32 | CC(C)n1cc(C(=O)Nc2ccc(Oc3ccnc(Nc4cccc(C(F)(F)F)n4)c3)c(F)c2)c(=O)n(-c2ccc(F)cc2)c1=O [Example 9] | 29 nM | 16 nM
33 | CC(C)n1cc(C(=O)Nc2ccc(Oc3ccnc(Nc4ccc(C(F)F)cn4)c3)c(F)c2)c(=O)n(-c2ccc(F)cc2)c1=O [Example 10] | 15 nM | 43 nM
34 | CC(C)n1cc(C(=O)Nc2ccc(Oc3ccnc(Nc4ccc(OC(F)(F)F)cn4)c3)c(F)c2)c(=O)n(-c2ccc(F)cc2)c1=O [Example 11] | 53 nM | 128 nM
35 | COC(=O)c1ccc(Nc2cc(Oc3ccc(NC(=O)c4cn(C(C)C)c(=O)n(-c5ccc(F)cc5)c4=O)cc3F)ccn2)nc1 [Example 14, Methyl 6-((4-(2-fluoro-4-(3-(4-fluorophenyl)-1-isopropyl-2,4-dioxo-1,2,3,4-tetrahydropyrimidine-5-carboxamido)phenoxy)pyridin-2-yl)amino)nicotinate] | 3.6 nM | 11 nM
36 | CC(C)n1cc(C(=O)Nc2ccc(Oc3ccnc(Nc4ccc(-c5nccs5)cn4)c3)c(F)c2)c(=O)n(-c2ccc(F)cc2)c1=O [Example 23] | 31 nM | 55 nM
37 | CC(C)n1cc(C(=O)Nc2ccc(Oc3ccnc(Nc4cnc(C#N)cn4)c3)c(F)c2)c(=O)n(-c2ccc(F)cc2)c1=O [Example 26] | 18 nM | 60 nM
38 | CC(C)NC(=O)c1ccc(Nc2cc(Oc3ccc(NC(=O)c4cn(C(C)C)c(=O)n(-c5ccc(F)cc5)c4=O)cc3F)ccn2)nc1 [Example 94] | – | 3.5 nM
39 | CC(C)n1cc(C(=O)Nc2ccc(Oc3ccnc(Nc4ccnc(N5CCCC5)n4)c3)c(F)c2)c(=O)n(CC2CC2)c1=O [Example 110] | – | 1.6 nM
40 | CC(C)n1cc(C(=O)Nc2ccc(Oc3ccnc(Nc4ccnc(N5CCCC5)n4)c3)c(F)c2)c(=O)n(CC2CCCCC2)c1=O [Example 111] | – | 14 nM
41 | COC(=O)N1CCN(c2nc(Nc3cc(Oc4ccc(NC(=O)c5cn(C(C)C)c(=O)n(Cc6ccccc6)c5=O)cc4F)ccn3)ccc2C#N)CC1 [Example 130] | – | 7.1 nM
42 | CC(C)n1cc(C(=O)Nc2ccc(Oc3ccnc(Nc4ccc(C#N)c(N5CCC(O)(C(F)(F)F)CC5)n4)c3)c(F)c2)c(=O)n(Cc2ccccc2)c1=O [Example 132] | – | 12 nM
